This is an account of results in patent US10814010B2, “FOXC2 inhibitor and methods of use thereof” (The Board of Regents of The University of Texas System, priority 2018, dated 2020).

A value given as a limit tells only on which side of the number the result lay.

In test [1] the target is T1, DNA binding domain (DBD) of FOXC2 (Homo sapiens, UniProt Q99958).
T1 construct: His6 (N, cleaved yes); MBP (N, cleaved yes); made in house; host or cells: E. coli BL21(DE3)-RIPL
T1 sequence (Q99958 60-163): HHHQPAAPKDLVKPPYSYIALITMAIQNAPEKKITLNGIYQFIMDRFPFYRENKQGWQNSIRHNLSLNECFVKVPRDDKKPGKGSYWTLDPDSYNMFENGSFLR
In words: ELISA-like binding assay, immobilized DNA binding domain of FOXC2. The note with it: biotinylated compound. The method, then:
(§1) The binding affinity of MC-1-F2 to full-length FOXC2 was determined using an ELISA-like binding assay. In this assay, varying concentrations of biotinylated MC-1-F2 or biotinylated MC-C (control; FIG. 12) were incubated in the wells with immobilized recombinant full-length FOXC2 or the DNA binding domain (DBD) of FOXC2 (FIG. 2A). After washing off unbound ligand, the wells were incubated with streptavidin-conjugated Qdot655, followed by fluorescence measurement of the wells using a plate reader. […] This is important for the specificity of MC-1-F2 to FOXC2 as several forkhead transcription factors share a very similar DNA-binding domain.
(§2) Clear bottom, black wall, 96 well plate (Corning) was coated with 1 μg/mL of full length FOXC2 or DNA binding domain (DBD) of FOXC2 protein in sensitizing buffer (0.621 g NaHCO3, 0.275 g Na2CO3 in 100 mL of water pH=9.5) overnight at 4° C. Wells were washed 3 times with 200 μL of wash buffer (lx PBS with 0.05% Tween-20). Wells were blocked with blocking buffer (1% BSA in 1×PBS with 0.05% Tween-20) for 1 hour at room temperature. 50 μL of serial dilutions of biotinylated compound in blocking buffer were added to each well and incubated for 1 hour at room temperature. Followed was the addition of […] of 20 nM of strepavidin-Qdot655 in blocking buffer for 1 hour at room temperature. […] Fluorescence was measured using a plate reader (Ex. 495, Em. 655).
(In general: An ELISA detects its analyte on a solid surface through an enzyme-linked reagent.)

For the next test, the system named is MDA-MB-231 cells. In words: Wound healing assay, MDA-MB-231. The test is classed as cell-based. The note with it: MDA-MB-231, 20 μM, 24 hours. The method, then:
Reversal of EMT mediated by MC-1-F2 was anticipated to lead to the inhibition of metastatic capability of cancer cells. […] A wound healing assay was carried out to examine the migratory capabilities of cells in closing a “wound” or gap over a period of 24 hours. […] Inhibition of migratory capabilities of cells only measures one aspect of EMT progression. EMT is marked also by increased invasiveness of cancer cells. Therefore, the invasive property of MDA-MB-231 cells treated with MC-1-F2 was examined (FIGS. 6B&C).
3×10^5 cells of MDA-MB-231 in 70 μL of DMEM media were seeded on an ibidi μ-dish (Ibidi) and incubated for 24 hours. The insert was removed carefully with tweezers, to create the “wound” and the dish rinsed with DPBS. Followed by the addition of DMEM media with applicable drug. Images were taken at various time points and monitoring of the migration of cells into the “gap” was recorded at several time points.

In a further test the target is T2, full-length FOXC2 (Homo sapiens, UniProt Q99958).
T2 construct: human FOXC2 protein (amino acid residues 1-501) with a C-terminal 6 histidine tag; made in house; host or cells: E. coli BL21(DE3)
T2 sequence (Q99958 1-501): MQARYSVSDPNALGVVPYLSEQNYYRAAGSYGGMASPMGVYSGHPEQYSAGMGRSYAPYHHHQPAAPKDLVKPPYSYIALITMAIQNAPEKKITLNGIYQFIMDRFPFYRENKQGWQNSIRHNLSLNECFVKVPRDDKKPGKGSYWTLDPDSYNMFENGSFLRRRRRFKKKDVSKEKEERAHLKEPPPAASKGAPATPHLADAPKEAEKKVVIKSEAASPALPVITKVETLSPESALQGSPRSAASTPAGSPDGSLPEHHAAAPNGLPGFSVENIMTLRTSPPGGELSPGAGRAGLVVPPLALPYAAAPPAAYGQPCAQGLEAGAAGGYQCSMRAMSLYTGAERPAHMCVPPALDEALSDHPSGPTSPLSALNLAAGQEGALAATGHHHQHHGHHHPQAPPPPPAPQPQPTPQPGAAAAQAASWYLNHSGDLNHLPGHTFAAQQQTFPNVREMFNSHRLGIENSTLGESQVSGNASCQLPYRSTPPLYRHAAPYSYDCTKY
In words: ELISA-like binding assay, immobilized full-length FOXC2. The note with it: biotinylated compound, immobilized recombinant full-length FOXC2, Qdot655 fluorescence. As to the method:
as §1, §2

The subject of the next test is PC3 cells. In words: Transwell invasion assay, PC3. It counts as cell-based. The conditions noted are these: PC3, 24 hours, vs DMSO. As to the method:
Following determination of both inhibition of EMT and CSC properties, the inhibition of the migratory and invasive capabilities of both cell lines following MC-1-F2 treatment was examined through the use of a transwell invasion assay.
Matrigel invasion chambers (Corning) were allowed to come to room temperature and allowed to rehydrate for 2 hours in a cell incubator. Cells were treated 24 hours prior to assay and starved in 2% FBS in DMEM for 2 hours prior to assay. A cell suspension containing 5×10^4 cells/mL was prepared. Chemoattractant (DMEM+10% FBS) was added to the bottom of the wells. Using forceps, the inserts were transferred inside the wells and 0.5 mL of cell suspension was immediately added. The chambers were incubated for 22 hours in a humidified tissue culture incubator. After the 22 hours, the non-invading cells were removed by scrubbing the surface of the membrane. The cells were fixated with 4% formaldehyde solution for 2 minutes at room temperature. Followed by permeabilization of the membrane with 100% MeOH for 20 minutes at room temperature. The cells were stained with 0.5% crystal violet solution and several images of the wells were then taken and total number of cells counted for analysis.

As to `N=C(N)NCCCCNc1nc(Nc2ccc(Oc3ccccc3)cc2)nc(N2CCN(c3nc(N)nc(Nc4ccc(N5CCOCC5)cc4)n3)CC2)n1` [MC-1-F2], the Kd – broadly, the concentration at which binding is half-saturated – is greater than 100 µM in test [1] and 26 µM at full-length FOXC2. For the same compound, the “migratory activity / wound closure” value with MDA-MB-231 cells is listed as “inhibition of the migratory activity”. Further, the “invasiveness (transwell invasion)” value in the test on PC3 cells was “remarkable inhibition in invasiveness”.
